According to patent US9023354B2, “Combination therapy with MDM2 and EFGR inhibitors” (priority 2010, dated 2015):
pIC50: −log10 of the molar value. Where two headings read alike, the source gives them in different places.

Assays:
A431 cells [1] = assay: A431 cell proliferation assay (MTT), alone and in combination with Tarceva; assay type: cell-based; conditions: for pIC50: Homo sapiens, A-431, A431 cells, further studies, Example 9, Table 7A, read-out: A431 Cell Proliferation (IC50 Value); for A431 Cell Proliferation CI Value: combination with Tarceva, CI <0.8 indicates synergy, Example 9, Table 7B
Experimental: This example describes an assay that measures the ability of compounds to inhibit the proliferation of cultured cells. This assay can also be used to assess whether combining two or more compounds produces additive, synergistic, or antagonistic effects on cell growth.
On day 1, the cells were seeded at 10^3 cells per well in 100 μl of complete media under standard conditions.
On day 2, the cells were washed and 100 μl serum free media was added. The cells were then incubated for at least 2 hours before the addition of compound(s). 20 μl of compound(s) was added to the respective wells and incubated at 37° C., 5% CO2 for 72 hrs.
On day 5, 50 μl of the MTT dye solution was added to each well. The plates were incubated at 37° C., 5% CO2 for 1 hr. The media was then aspirated and the cells were resuspended in […] of DMSO. The plates were allowed to incubate for 5 min at room temperature with gentle shaking.
The absorbance in each well was determined at 560 nm using a Polarstar plate reader.
The A431 cell line over-expresses the EGF receptor, and was utilized to assess the ability of AD4 compounds to inhibit EGF-mediated cell proliferation.

A431 cells [2] = assay: Caspase 3/7 activity, measurement of apoptosis; assay type: cell-based; conditions: for Caspase 3/7 Activity Synergy with Tarceva: combination effect greater than sum of single effects; for Caspase 3/7 Activity % Inc. Relative to Tarceva: relative to 8 μM Tarceva alone
A549 cells = assay: DNA fragmentation (Cell Death Detection ELISA), measurement of apoptosis; conditions: Homo sapiens
Experimental: The plates were allowed to incubate overnight @ 37° C., 5% CO2. On day 2, the media was removed from the plates and 160 μl media containing 5% FBS was added. 40 μl of media-containing test compound in 100% DMSO (prepared at 5× the dosing concentration) was added to the existing media resulting in a final DMSO concentration of 0.5%. Cells were incubated in the presence of a compound for 24 hrs @ 37° C., 5% CO2.
After 24 hrs, the abovementioned plates were centrifuged at 200×g for 10 min. The media was removed by gently inverting the plate and disposing of the media onto a paper towel. The plates were tapped gently to remove excess media. 200 μl lysis buffer was added to each well, and mixed by shaking at 300 rpm. The plates were incubated at room temperature for 30 min. The plates were centrifuged at 200×g for 10 min and 20 μl of lysis supernatant was removed for use in ELISA analysis to detect cell death.
20 μl of the cell lysis supernatant was placed into streptavidin-coated plates with 20 μl positive control and 20 μl incubation buffer negative control. Add 80 μl Immunoreagent (for DNA fragment detection) to each well. The wells were covered with foil adhesive and shaken at 300 rpm for 2 h at room temperature. The supernatant solution was removed and the wells were washed 3 times with 300 μl incubation buffer. 100 μl of ABTS detection substrate was added to each well. The wells were incubated on a plate shaker at 250 rpm for approximately 10-20 min. 100 μl ABTS of stop buffer was then added. […] The absorbance measures the colored product spectrophotometrically, correlating with apoptosis.
The percent increase in DNA fragmentation produced by compounds at a concentration of 1 and 10 μM were compared to background, and to the response produced by 500 nM staurosporin.

[3] = A549, read-out: % Inc. Relative to Staurosporin (500 nM), DNA fragmentation
[4] = A549, read-out: % Inc. over Background, DNA fragmentation

Structure (SMILES) | pIC50 (A431 cells [1]) | A431 Cell Proliferation CI Value (A431 cells [1]) | activation at 10 µM (A549 cells; [3]) | activation at 1 µM (A549 cells; [4]) | activation at 10 µM (A549 cells; [4]) | other results
Cc1cc(NC(c2cccc(C(F)(F)F)c2)c2ccc3cccnc3c2O)ncc1Cl (centres unmarked) [AD4-13107] | 5.77 | 0.64 | – | – | – | Caspase 3/7 Activity Synergy with Tarceva (A431 cells [2]): Yes; Caspase 3/7 Activity % Inc. Relative to Tarceva (A431 cells [2]): 48%
Oc1c(C(Nc2ncc(F)cc2F)c2cc(Cl)cc(Cl)c2Cl)ccc2cccnc12 (centres unmarked) [AD4-13181] | – | – | – | – | – | Caspase 3/7 Activity Synergy with Tarceva (A431 cells [2]): Yes
Oc1c(C(Nc2cc(Cl)c(Cl)cn2)c2ccc(Cl)c(F)c2)ccc2cccnc12 (centres unmarked) [AD4-13224] | – | – | 59% | 296% | 662% | activation at 1 µM (A549 cells; [3]): 25%
Oc1c(C(Nc2cc(Cl)c(Cl)cn2)c2ccc(F)cc2Cl)ccc2cccnc12 (centres unmarked) [AD4-13185] | – | – | 62% | 285% | 576% | Caspase 3/7 Activity Synergy with Tarceva (A431 cells [2]): Yes; Caspase 3/7 Activity % Inc. Relative to Tarceva (A431 cells [2]): 37%; activation at 1 µM (A549 cells; [3]): 32%
Cc1cc(Cl)cnc1NC(c1ccccc1Cl)c1ccc2cccnc2c1O (centres unmarked) [AD4-13134] | – | – | 46% | 573% | 469% | activation at 1 µM (A549 cells; [3]): 56%
Cc1ccnc(NC(c2cc(Cl)cc(Cl)c2Cl)c2ccc3cccnc3c2O)c1 (centres unmarked) [AD4-13072] | 6.11 | 0.74 | – | – | – | Caspase 3/7 Activity Synergy with Tarceva (A431 cells [2]): Yes; Caspase 3/7 Activity % Inc. Relative to Tarceva (A431 cells [2]): 52%
Cc1cc(NC(c2ccc(Cl)cc2Cl)c2ccc3cccnc3c2O)ncc1Cl (centres unmarked) [AD4-13123] | – | – | 51% | 366% | 476% | activation at 1 µM (A549 cells; [3]): 40%
Cc1c(Cl)cnc(NC(c2cccc(Cl)c2Cl)c2ccc3cccnc3c2O)c1F (centres unmarked) [AD4-13192] | – | – | – | – | – | Caspase 3/7 Activity Synergy with Tarceva (A431 cells [2]): Yes
Oc1c(C(Nc2ccc(C(F)(F)F)cn2)c2cccc(C(F)(F)F)c2)ccc2cccnc12 (centres unmarked) [AD4-13164] | – | – | 55% | 390% | 579% | activation at 1 µM (A549 cells; [3]): 38%
Cc1cc(Cl)cnc1NC(c1cccc(Cl)c1Cl)c1ccc2cccnc2c1O (centres unmarked) [AD4-13147] | – | – | 52% | 406% | 462% | –
Oc1c(C(Nc2ccc(Cl)cn2)c2ccccc2Cl)ccc2cccnc12 (centres unmarked) [AD4-13087] | 5.74 | 0.70 | – | – | – | –
Oc1c(C(Nc2ccc(C(F)(F)F)nc2)c2ccc(C(F)(F)F)c(F)c2)ccc2cccnc12 (centres unmarked) [AD4-13051] | 5.80 | 0.72 | – | – | – | –
COc1ccc(C(Nc2cc(C)c(Cl)cn2)c2ccc3cccnc3c2O)c(OC)c1OC (centres unmarked) [AD4-13196] | – | 0.69 | – | – | – | –
Oc1c(C(Nc2ccc(Cl)cn2)c2cc(Cl)ccc2Cl)ccc2cccnc12 (centres unmarked) [AD4-13095] | 6.08 | 0.75 | – | – | – | Caspase 3/7 Activity Synergy with Tarceva (A431 cells [2]): Yes; Caspase 3/7 Activity % Inc. Relative to Tarceva (A431 cells [2]): 27%
Cc1cc(NC(c2cc(Cl)cc(Cl)c2)c2ccc3cccnc3c2O)ncc1Cl (centres unmarked) [AD4-13122] | 5.80 | 0.84 | – | – | – | –
Oc1c(C(Nc2cc(Cl)c(Cl)cn2)c2ccc(Cl)cc2)ccc2cccnc12 (centres unmarked) [AD4-13187] | – | – | 62% | 388% | 543% | activation at 1 µM (A549 cells; [3]): 47%
Oc1c(C(Nc2cc(Cl)c(Cl)cn2)c2cccc(Cl)c2Cl)ccc2cccnc12 (centres unmarked) [AD4-13172] | – | – | 70% | 355% | 782% | activation at 1 µM (A549 cells; [3]): 32%
Cc1cc(Cl)ccc1NC(c1ccc(Cl)cc1Cl)c1ccc2cccnc2c1O (centres unmarked) [AD4-13201] | 5.70 | 0.82 | – | – | – | –
Cc1cccc(NC(c2cc(Cl)cc(Cl)c2)c2ccc3ccc(C)nc3c2O)n1 (centres unmarked) [AD4-13075] | 5.85 | 0.83 | – | – | – | –
Oc1c(C(Nc2ccc(C(F)(F)F)nc2)c2ccc(Cl)cc2Cl)ccc2cccnc12 (centres unmarked) [AD4-13066] | 5.27 | 0.60 | – | – | – | –
Cc1cccc(NC(c2ccc3cccnc3c2O)c2c(F)c(F)cc(F)c2F)n1 (centres unmarked) [AD4-12918] | – | 0.65 | – | – | – | –
Cc1cc(NC(c2ccccc2Cl)c2ccc3cccnc3c2O)ncc1F (centres unmarked) [AD4-13116] | – | 0.52 | – | – | – | –
Cc1cc(NC(c2cc(Cl)cc(Cl)c2)c2ccc3cccnc3c2O)ncc1F (centres unmarked) [AD4-13114] | 6.07 | 0.81 | – | – | – | –
Oc1c(C(Nc2ccccn2)c2ccc(Cl)cc2Cl)ccc2cccnc12 (centres unmarked) [AD4-10484] | – | 0.97 | – | – | – | –
